Experimental data reported in patent publication US11116760B2 (Gilead Sciences, Inc., priority 2018, dated 2021).

Molecular target: α4β7 integrin (Homo sapiens (Human), UniProt P13612+P26010)
Assay: α4β7 Integrin Cell Capture Assay
Type: cell-based
Description: α4β7 Integrin Cell Capture Assay
The potency of inhibitors in preventing α4β7 integrin interaction with MadCAM-1 was measured by monitoring the capture of α4β7 integrin expressing cells on a recombinant MadCAM-1 extracellular domain-coated plate. […] The plates were then washed with PBS and blocked with 3% BSA for 2 hours before being washed again.
RPM18866 cells were spun down and re-suspended in assay medium (DMEM+0.5% FBS+0.5 mM MnCl2) at a density of 0.5×10^6 cells/mL. […] The plates were incubated at 37° C. for 1 hour. 50 μL of cells were transferred to the blocked, MadCAM-1-coated plates and incubated for 30 minutes at 37° C. […] The plates were incubated for 90 minutes at room temperature. The plates were then washed 3 times with 70 μL of PBS per well and imaged on a Cellomics ArrayScan instrument. The cells that were bound to the plate were counted and plotted against the compound concentration to determine the EC50 of the test compounds.

[1] = Table 1, capture of α4β7 expressing RPM18866 cells on MadCAM-1 extracellular domain-coated plate
[2] = Table 2, capture of α4β7 expressing RPM18866 cells on MadCAM-1 extracellular domain-coated plate
[3] = RPMI8866 cells captured on MadCAM-1 extracellular domain-coated plate

Chain of α4β7 integrin (P13612 34-1032): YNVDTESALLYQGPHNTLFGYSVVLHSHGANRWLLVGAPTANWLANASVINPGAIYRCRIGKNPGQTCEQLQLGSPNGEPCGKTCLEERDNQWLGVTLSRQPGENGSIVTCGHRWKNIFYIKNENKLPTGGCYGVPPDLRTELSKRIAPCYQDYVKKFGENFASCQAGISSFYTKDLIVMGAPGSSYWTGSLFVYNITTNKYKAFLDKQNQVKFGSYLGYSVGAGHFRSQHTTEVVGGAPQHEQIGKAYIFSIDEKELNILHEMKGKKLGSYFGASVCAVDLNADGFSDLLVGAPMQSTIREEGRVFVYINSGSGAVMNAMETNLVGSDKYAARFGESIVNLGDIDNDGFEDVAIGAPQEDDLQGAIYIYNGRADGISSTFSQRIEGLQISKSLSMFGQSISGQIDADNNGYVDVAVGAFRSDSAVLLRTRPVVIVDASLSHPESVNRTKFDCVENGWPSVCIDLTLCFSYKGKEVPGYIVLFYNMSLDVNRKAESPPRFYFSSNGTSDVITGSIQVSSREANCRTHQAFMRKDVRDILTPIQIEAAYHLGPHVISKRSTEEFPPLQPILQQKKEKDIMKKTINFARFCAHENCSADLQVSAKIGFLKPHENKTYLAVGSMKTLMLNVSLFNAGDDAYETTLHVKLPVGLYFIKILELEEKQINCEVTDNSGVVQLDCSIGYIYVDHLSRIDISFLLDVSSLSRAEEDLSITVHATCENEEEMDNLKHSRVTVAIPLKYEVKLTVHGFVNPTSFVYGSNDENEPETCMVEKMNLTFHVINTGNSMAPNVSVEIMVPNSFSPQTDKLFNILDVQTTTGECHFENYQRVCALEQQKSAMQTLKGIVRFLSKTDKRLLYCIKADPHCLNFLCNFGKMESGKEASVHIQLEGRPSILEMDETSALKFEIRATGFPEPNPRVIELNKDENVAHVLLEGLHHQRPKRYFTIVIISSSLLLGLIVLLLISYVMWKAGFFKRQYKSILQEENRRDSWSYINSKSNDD
Chain of α4β7 integrin (P26010 20-798): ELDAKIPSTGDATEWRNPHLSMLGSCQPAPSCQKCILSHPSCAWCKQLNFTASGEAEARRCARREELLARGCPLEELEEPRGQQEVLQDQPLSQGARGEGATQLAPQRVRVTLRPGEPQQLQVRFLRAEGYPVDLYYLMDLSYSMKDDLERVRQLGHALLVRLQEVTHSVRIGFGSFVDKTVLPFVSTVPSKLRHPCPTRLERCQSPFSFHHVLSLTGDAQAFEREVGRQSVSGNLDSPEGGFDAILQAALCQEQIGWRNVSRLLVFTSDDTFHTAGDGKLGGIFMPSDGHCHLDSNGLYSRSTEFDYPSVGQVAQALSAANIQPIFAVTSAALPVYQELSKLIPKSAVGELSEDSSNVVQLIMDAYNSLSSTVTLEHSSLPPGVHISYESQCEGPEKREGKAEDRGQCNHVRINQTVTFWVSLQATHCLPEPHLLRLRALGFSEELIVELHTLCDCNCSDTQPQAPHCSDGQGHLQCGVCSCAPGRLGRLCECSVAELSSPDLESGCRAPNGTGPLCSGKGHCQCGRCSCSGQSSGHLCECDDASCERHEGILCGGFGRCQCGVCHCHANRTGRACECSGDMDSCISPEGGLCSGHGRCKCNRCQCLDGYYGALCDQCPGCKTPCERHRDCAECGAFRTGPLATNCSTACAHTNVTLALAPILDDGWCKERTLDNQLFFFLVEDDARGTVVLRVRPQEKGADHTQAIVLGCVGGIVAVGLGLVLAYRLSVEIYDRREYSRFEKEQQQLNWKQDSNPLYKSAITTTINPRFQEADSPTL

SMILES	EC50 [1] [nM]	EC50 [2] [nM]	other results
O=C(N[C@@H](Cc1ccc(-c2c(Cl)cc(F)cc2Cl)c2ncccc12)C(=O)O)c1c(F)cccc1F [Example 19, (S)-3-(8-(2,6-dichloro-4-fluorophenyl)quinolin-5-yl)-2-(2,6-difluorobenzamido)propanoic acid]	50	–	–
CC[C@@H](Nc1cc(Cl)c(C(=O)N[C@@H](Cc2ccc(-c3c(C(F)(F)F)cc(C)n(C)c3=O)c3ncccc23)C(=O)O)c(Cl)c1)C(F)(F)F [Example 143, (S)-2-(2,6-dichloro-4-(((R)-1,1,1-trifluorobutan-2-yl)amino)benzamido)-3-(8-(1,6-dimethyl-2-oxo-4-(trifluoromethyl)-1,2-dihydropyridin-3-yl)quinolin-5-yl)propanoic acid]	0.3	–	–
Cc1cc(C(F)(F)F)c(-c2ccc(C[C@H](NC(=O)c3c(F)cc(N4C[C@H](C)OC[C@@H]4C)cc3F)C(=O)O)c3cccnc23)c(=O)n1C [Example 204]	–	1.7	–
CC[C@@H](Nc1cc(F)c(C(=O)N[C@@H](Cc2ccc(-c3nccc(C)c3C(F)(F)F)c3ncccc23)C(=O)O)c(F)c1)C(F)(F)F [Example 252]	–	3.1	–
COc1c(-c2ccc(C[C@H](NC(=O)c3c(F)cc(N[C@H](C)C(F)(F)F)cc3F)C(=O)O)c3cccnc23)c(=O)n(C)c2ccccc12 [Example 156]	–	0.3	–
Cc1cc(-c2nccn2CC(F)(F)F)cc(F)c1C(=O)N[C@@H](Cc1ccc(-n2c(=O)c3ccncc3n(C)c2=O)c2ncccc12)C(=O)O [Example 419]	–	–	EC50 [3]: 0.369 nM
COc1c(F)cccc1-c1ccc(C[C@H](NC(=O)c2c(F)cc(NS(=O)(=O)c3ccc(-c4ccnc(F)c4)cc3)cc2F)C(=O)O)c2cccnc12 [Example 60, (S)-2-(2,6-difluoro-4-((4-(2-fluoropyridin-4-yl)phenyl)sulfonamido)benzamido)-3-(8-(3-fluoro-2-methoxyphenyl)quinolin-5-yl)propanoic acid]	3	–	–
Cc1cc(N2CCOC[C@@H]2C(F)(F)F)cc(F)c1C(=O)N[C@@H](Cc1ccc(-n2c(=O)c3c(cnn3C)n(C)c2=O)c2ncccc12)C(=O)O [Example 413]	–	–	EC50 [3]: 0.529 nM
Cc1nc(-c2ccc(C[C@H](NC(=O)c3c(F)cc(N4CCOC[C@@H]4C(F)(F)F)cc3F)C(=O)O)c3cccnc23)c(=O)n(C)c1C [Example 151]	–	0.2	–
CC[C@@H](Nc1cc(F)c(C(=O)N[C@@H](Cc2ccc(-n3c(=O)c4ccncc4n(C)c3=O)c3ncccc23)C(=O)O)c(F)c1)C(F)(F)F [Example 475]	–	–	EC50 [3]: 0.157 nM
Cc1cnc(-c2ccc(C[C@H](NC(=O)c3c(F)cc(N4CCOC[C@@H]4C(F)(F)F)cc3F)C(=O)O)c3cccnc23)c(N(C)C)c1 [Example 277]	–	5.2	–
O=C(N[C@@H](Cc1ccc(-c2ccc(C(F)(F)F)cn2)c2ncccc12)C(=O)O)c1c(F)cc(NS(=O)(=O)c2ccc(-c3ccnc(F)c3)cc2)cc1F [Example 57, (S)-2-(2,6-difluoro-4-((4-(2-fluoropyridin-4-yl)phenyl)sulfonamido)benzamido)-3-(8-(5-(trifluoromethyl)pyridin-2-yl)quinolin-5-yl)propanoic acid]	30	–	–
CC[C@@H](Nc1cc(F)c(C(=O)N[C@@H](Cc2ccc(-c3nc(C)ccc3OC)c3ncccc23)C(=O)O)c(F)c1)C(F)(F)F [Example 120, (S)-2-(2,6-difluoro-4-(((R)-1,1,1-trifluorobutan-2-yl)amino)benzamido)-3-(8-(3-methoxy-6-methylpyridin-2-yl)quinolin-5-yl)propanoic acid]	1.3	–	–
CC(=O)c1cc(F)c(C(=O)N[C@@H](Cc2ccc(-c3ccc(C#N)cc3Cl)c3ncccc23)C(=O)O)c(F)c1 [Example 241]	–	80.1	–
O=C(N[C@@H](Cc1ccc(-c2ccccc2C(F)(F)F)c2ncccc12)C(=O)O)c1c(F)cc(NS(=O)(=O)c2ccc(-c3ccnc(F)c3)cc2)cc1F [Example 65, (S)-2-(2,6-difluoro-4-((4-(2-fluoropyridin-4-yl)phenyl)sulfonamido)benzamido)-3-(8-(2-(trifluoromethyl)phenyl)quinolin-5-yl)propanoic acid]	8.4	–	–
Cc1cc(N2CCOC[C@@H]2C(F)(F)F)cc(F)c1C(=O)N[C@@H](Cc1ccc(-c2c(C)c(C(F)(F)F)cn(C)c2=O)c2ncccc12)C(=O)O [Example 457]	–	–	EC50 [3]: 0.238 nM
O=C(N[C@@H](Cc1ccc(Oc2nccc3ccccc23)c2ncccc12)C(=O)O)c1c(Cl)cccc1Cl [Example 157]	–	44	–
Cc1cc(C(F)(F)F)c(-c2ccc(C[C@H](NC(=O)c3c(F)cc(N4CC[C@H]4C(F)(F)F)cc3F)C(=O)O)c3cccnc23)c(=O)n1C [Example 298]	–	7.9	–
CC[C@@H](Nc1cc(F)c(C(=O)N[C@@H](Cc2ccc(-c3nc(C)c(C)nc3C)c3ncccc23)C(=O)O)c(F)c1)C(F)(F)F [Example 295]	–	7.4	–
N#Cc1ccc(-c2ccc(C[C@H](NC(=O)c3c(F)cc(C(=O)O)cc3F)C(=O)O)c3cccnc23)c(Cl)c1 [Example 25, (S)-4-((1-carboxy-2-(8-(2-chloro-4-cyanophenyl)quinolin-5-yl)ethyl)carbamoyl)-3,5-difluorobenzoic acid]	3.3	–	–
CC[C@@H](Nc1cc(F)c(C(=O)N[C@@H](Cc2ccc(-c3nc(C)c(C)c(C)c3C(F)(F)F)c3ncccc23)C(=O)O)c(F)c1)C(F)(F)F [Example 236]	–	2.6	–
CC(C)(O)C#Cc1cc(Cl)c(C(=O)N[C@@H](Cc2ccc(-c3ccc(C#N)cc3Cl)c3ncccc23)C(=O)O)c(Cl)c1 [Example 29, (S)-3-(8-(2-chloro-4-cyanophenyl)quinolin-5-yl)-2-(2,6-dichloro-4-(3-hydroxy-3-methylbut-1-yn-1-yl)benzamido)propanoic acid]	68.7	–	–
CC[C@@H](Nc1cc(F)c(C(=O)N[C@@H](Cc2ccc(-c3c(OC)cc(C)n(C)c3=O)c3ncccc23)C(=O)O)c(F)c1)C(F)(F)F [Example 341]	–	0.6	–
Cc1nc(C)n(C)c(=O)c1-c1ccc(C[C@H](NC(=O)c2c(F)cc(N3CCOC[C@@H]3C(F)(F)F)cc2F)C(=O)O)c2cccnc12 [Example 440]	–	–	EC50 [3]: 0.25 nM
Cc1cc(N2CCOC[C@@H]2C(F)(F)F)cc(F)c1C(=O)N[C@@H](Cc1ccc(-n2c(=O)c3ccc(F)cc3n(C)c2=O)c2ncccc12)C(=O)O [Example 431]	–	–	EC50 [3]: 0.094 nM
Cc1cc(C(F)(F)F)c(-c2ccc(C[C@H](NC(=O)c3c(F)cc(N4CCOC[C@@H]4C(F)(F)F)cc3F)C(=O)O)c3cccnc23)nc1C [Example 94, (S)-2-(2,6-difluoro-4-((R)-3-(trifluoromethyl)morpholino)benzamido)-3-(8-(5,6-dimethyl-3-(trifluoromethyl)pyridin-2-yl)quinolin-5-yl)propanoic acid]	0.5	–	–
N#Cc1ccc(-c2ccc(C[C@H](NC(=O)c3c(F)cc(N4CCCC[C@@H]4C(F)(F)F)cc3F)C(=O)O)c3cccnc23)c(Cl)c1 [Example 75, (S)-3-(8-(2-chloro-4-cyanophenyl)quinolin-5-yl)-2-(2,6-difluoro-4-((R)-2-(trifluoromethyl)piperidin-1-yl)benzamido)propanoic acid]	80.4	–	–
CC[C@@H](Nc1cc(F)c(C(=O)N[C@@H](Cc2ccc(-c3ccc(F)c4cccnc34)c3ncccc23)C(=O)O)c(F)c1)C(F)(F)F [Example 264]	–	4.1	–
Cc1cc(C(F)(F)F)c(-c2ccc(C[C@H](NC(=O)c3c(F)cc(N4CCOC[C@@H]4C)cc3F)C(=O)O)c3cccnc23)c(=O)n1C [Example 180]	–	0.9	–
